Data published in patent US20250353821A1, “BENZENE SULFONAMIDE THIAZOLE COMPOUNDS AND THEIR USE FOR THE TREATMENT OF CANCERS” (INSERM (INSTITUT NATIONAL DE LA SANTÉ ET DE LA RECHERCHE …, priority 2021, published 2025).
Converted amounts (≈) assume the structure as drawn.

Legend:
A375 melanoma cells [1] = test: IC50 determination in A375 cells, blue trypan exclusion; type: cell-based, human; conditions: Homo sapiens, A-375; A375, serum free, 24 h
CHOP in KATO III cells = test: CHOP induction (ER stress marker), western blot, Kato III; type: cell-based, human; design: key: −: No induction of CHOP; +: Induction of CHOP; ++: Significant induction of CHOP; +++: Strong induction of CHOP; conditions: Kato III (1% SVF), 24 or 48 h
CHOP in Kyse 70 cells = test: CHOP induction (ER stress marker), western blot, Kyse70; type: cell-based, human; design: key: −: No induction of CHOP; +: Induction of CHOP; ++: Significant induction of CHOP; +++: Strong induction of CHOP; conditions: Kyse70 (serum free), 24 h
[2] = Pharmacokinetics in mice (half-life, AUC IV, AUC PO); type: in vivo; conditions: for half-life: mouse, in vivo, 1 mg/kg, head prints both IV and PO administration 1 mpk, read-out: T½ IV (min) (PO administration 1 mpk)
[3] = system: NCI-60 Human Tumor Cell Lines; test: DTP-NCI-60 Human Tumor Cell Lines screen, one-dose; type: cell-based; conditions: growth relative to no-drug control and time zero, 100 = no inhibition, 0 = no net growth, negative = lethality
[4] = system: CHOP in A375 melanoma cells; test: CHOP induction (ER stress marker), western blot, A375; type: cell-based, human; design: key: −: No induction of CHOP; +: Induction of CHOP; ++: Significant induction of CHOP; +++: Strong induction of CHOP; conditions: A375 (serum free), 24 h
CHOP in SH10TC cells = test: CHOP induction (ER stress marker), western blot, SH10TC; type: cell-based, human; design: key: −: No induction of CHOP; +: Induction of CHOP; ++: Significant induction of CHOP; +++: Strong induction of CHOP; conditions: SH10TC (serum free), 24 or 48 h
Aqueous solubility = type: physicochemical; conditions: aqueous medium (not further specified), read-out: Solublity
[5] = Chemical stability in PBS/DMSO and aqueous HCl; type: physicochemical; conditions: 24 h
A375 melanoma cells [6] = test: Cell viability by cell counting, trypan blue exclusion method; type: cell-based; conditions: Homo sapiens, A-375, 48 h, percentage of cells alive relative to negative control DMSO (100%)

## CCCCCc1ccc(S(=O)(=O)Nc2cccc(-c3csc(NCCN4CCN(C)CC4)n3)c2)cc1 [PB704, N-(3-(2-((2-(4-methylpiperazin-1-yl)ethyl)amino)thiazol-4-yl)phenyl)-4-pentylbenzenesulfonamide]
A375 melanoma cells [1]
  IC50: 1.2 µM
CHOP in KATO III cells
  Induction of CHOP in comparison to control condition, Kato III: +
CHOP in Kyse 70 cells
  Induction of CHOP in comparison to control condition, Kyse70: +
[2]
  AUC IV (min · ng/mL/mpk): 197707 min · ng/mL/mpk
  AUC PO (min · ng/mL/mpk): 4435 min · ng/mL/mpk
[3]
  Mean growth inhibition value (data from DTP-NCI60): 55.54
[4]
  Induction of CHOP in comparison to control condition, A375: ++
CHOP in SH10TC cells
  Induction of CHOP in comparison to control condition, SH10TC: −
Aqueous solubility
  solubility: 1.4 ± 0.3 µM (≈ 0.739 µg/mL)
[5]; PBS (pH 7.4), 20% DMSO
  chemical stability: full stability
[5]; PBS (pH 7.4), 20% DMSO, 80° C.
  chemical stability: full stability
[5]; aqueous HCl (0.1M)
  chemical stability: full stability

## CCCCCc1ccc(S(=O)(=O)Nc2cccc(-c3csc(NC(=O)CN4CCN(C)CC4)n3)c2)cc1 [PB688, 2-(4-methylpiperazin-1-yl)-N-(4-(3-((4-pentylphenyl)sulfonamido)phenyl)thiazol-2 yl)acetamide]
A375 melanoma cells [1]
  IC50: 1 µM
CHOP in KATO III cells
  Induction of CHOP in comparison to control condition, Kato III: +
CHOP in Kyse 70 cells
  Induction of CHOP in comparison to control condition, Kyse70: +++
[2]
  AUC IV (min · ng/mL/mpk): 112348 min · ng/mL/mpk
  AUC PO (min · ng/mL/mpk): 3000 min · ng/mL/mpk
  half-life: 76 min
[4]
  Induction of CHOP in comparison to control condition, A375: +++
CHOP in SH10TC cells
  Induction of CHOP in comparison to control condition, SH10TC: ++
Aqueous solubility
  solubility: 17 ± 7 µM (≈ 9.21 µg/mL)

## CCCCCc1ccc(S(=O)(=O)Nc2cc(-c3csc(NC(=O)CN4CCN(C)CC4)n3)ccc2OC)cc1 [PB691, N-(4-(4-methoxy-3-((4-pentylphenyl)sulfonamido)phenyl)thiazol-2-yl)-2-(4-methylpiperazin-1-yl)acetamide]
A375 melanoma cells [1]
  IC50: 1.7 µM
CHOP in KATO III cells
  Induction of CHOP in comparison to control condition, Kato III: +
CHOP in Kyse 70 cells
  Induction of CHOP in comparison to control condition, Kyse70: ++
[2]
  AUC PO (min · ng/mL/mpk): 6266 min · ng/mL/mpk
  half-life: 77 min
[4]
  Induction of CHOP in comparison to control condition, A375: +
CHOP in SH10TC cells
  Induction of CHOP in comparison to control condition, SH10TC: −

## CCCCCc1ccc(S(=O)(=O)Nc2cc(-c3csc(NC(=O)CN4CCN(CCO)CC4)n3)ccc2OC)cc1 [PB692, 2-(4-(2-hydroxyethyl)piperazin-1-yl)-N-(4-(4-methoxy-3-((4-pentylphenyl)sulfonamido)phenyl)thiazol-2-yl)acetamide]
A375 melanoma cells [1]
  IC50: 1.6 µM
CHOP in KATO III cells
  Induction of CHOP in comparison to control condition, Kato III: +
CHOP in Kyse 70 cells
  Induction of CHOP in comparison to control condition, Kyse70: +
[2]
  AUC IV (min · ng/mL/mpk): 488474 min · ng/mL/mpk
  AUC PO (min · ng/mL/mpk): 3978 min · ng/mL/mpk
[3]
  Mean growth inhibition value (data from DTP-NCI60): 23.99
[4]
  Induction of CHOP in comparison to control condition, A375: +
CHOP in SH10TC cells
  Induction of CHOP in comparison to control condition, SH10TC: +
Aqueous solubility
  solubility: 7 ± 5 µM (≈ 4.21 µg/mL)

## CN(C)c1cccc2c(S(=O)(=O)Nc3cccc(-c4csc(NC(=O)CN5CCN(CCO)CC5)n4)c3)cccc12 [PB640, N-(4-(3-((5-(dimethylamino)naphthalene)-1-sulfonamido)phenyl)thiazol-2-yl)-2-(4-(2-hydroxyethyl)piperazin-1-yl)acetamide]
A375 melanoma cells [6]
  viability at 1 µM: 54.2 ± 5.9%
  viability at 5 µM: 67 ± 10.6%
  viability at 10 µM: 0%
Aqueous solubility
  solubility: 4.2 ± 0.4 µM (≈ 2.5 µg/mL)

## CN1CCN(CC(=O)Nc2nc(-c3cccc(NS(=O)(=O)c4cccc5c(N(C)C)cccc45)c3)cs2)CC1 [PB638, N-(4-(3-((5-(dimethylamino)naphthalene)-1-sulfonamido)phenyl)thiazol-2-yl)-2-(4-methylpiperazin-1-yl)acetamide]
A375 melanoma cells [6]
  viability at 1 µM: 37.5 ± 5.9%
  viability at 5 µM: 0.9 ± 1%
  viability at 10 µM: 0%
Aqueous solubility
  solubility: 4 ± 2 µM (≈ 2.26 µg/mL)

## CCCCCc1ccc(S(=O)(=O)N(C(C)=O)c2cccc(-c3csc(N(CCN4CCN(C)CC4)C(C)=O)n3)c2)cc1 [PB705, N-(2-(4-methylpiperazin-1-yl)ethyl)-N-(4-(3-(N-((4-pentylphenyl)sulfonyl)acetamido)phenyl)thiazol-2-yl)acetamide]
A375 melanoma cells [1]
  IC50: 1.3 µM
CHOP in KATO III cells
  Induction of CHOP in comparison to control condition, Kato III: ++
[3]
  Mean growth inhibition value (data from DTP-NCI60): 5.64
[4]
  Induction of CHOP in comparison to control condition, A375: ++

## CCCCCc1ccc(S(=O)(=O)Nc2cccc(-c3csc(NC(=O)CCCCCN4CCN(CCO)CC4)n3)c2)cc1 [PB695, 6-(4-(2-hydroxyethyl)piperazin-1-yl)-N-(4-(3-((4-pentylphenyl)sulfonamido)phenyl)thiazol-2-yl)hexanamide]
A375 melanoma cells [1]
  IC50: 0.6 µM
CHOP in KATO III cells
  Induction of CHOP in comparison to control condition, Kato III: −
CHOP in Kyse 70 cells
  Induction of CHOP in comparison to control condition, Kyse70: +
[4]
  Induction of CHOP in comparison to control condition, A375: +
CHOP in SH10TC cells
  Induction of CHOP in comparison to control condition, SH10TC: ++

## CCCCCc1ccc(S(=O)(=O)Nc2cc(-c3csc(NC(=O)CN4CCN(C)CC4)n3)ccc2N2CCN(C)CC2)cc1 [PB696, 2-(4-methylpiperazin-1-yl)-N-(4-(4-(4-methylpiperazin-1-yl)-3-((4-pentylphenyl)sulfonamido)phenyl)thiazol-2-yl)acetamide]
A375 melanoma cells [1]
  IC50: 0.9 µM
CHOP in KATO III cells
  Induction of CHOP in comparison to control condition, Kato III: +
CHOP in Kyse 70 cells
  Induction of CHOP in comparison to control condition, Kyse70: −
[2]
  half-life: 312 min
[4]
  Induction of CHOP in comparison to control condition, A375: +
CHOP in SH10TC cells
  Induction of CHOP in comparison to control condition, SH10TC: ++
Aqueous solubility
  solubility: 49 ± 16 µM (≈ 31.4 µg/mL)

## CCCCCc1ccc(S(=O)(=O)Nc2cccc(-c3csc(NC(=O)CCCCCN4CCN(C)CC4)n3)c2)cc1 [PB694, 6-(4-methylpiperazin-1-yl)-N-(4-(3-((4-pentylphenyl)sulfonamido)phenyl)thiazol-2-yl)hexanamide]
A375 melanoma cells [1]
  IC50: 0.75 µM
CHOP in KATO III cells
  Induction of CHOP in comparison to control condition, Kato III: +
CHOP in Kyse 70 cells
  Induction of CHOP in comparison to control condition, Kyse70: ++
[3]
  Mean growth inhibition value (data from DTP-NCI60): 37.26
[4]
  Induction of CHOP in comparison to control condition, A375: +
CHOP in SH10TC cells
  Induction of CHOP in comparison to control condition, SH10TC: ++

## CCCCCc1ccc(S(=O)(=O)Nc2cccc(-c3csc(NC(=O)CNCCN(C)C)n3)c2)cc1 [PB693, 2-((2-(dimethylamino)ethyl)amino)-N-(4-(3-((4-pentylphenyl)sulfonamido)phenyl)thiazol-2-yl)acetamide]
A375 melanoma cells [1]
  IC50: 1 µM
CHOP in KATO III cells
  Induction of CHOP in comparison to control condition, Kato III: −
CHOP in Kyse 70 cells
  Induction of CHOP in comparison to control condition, Kyse70: +
[4]
  Induction of CHOP in comparison to control condition, A375: ++
CHOP in SH10TC cells
  Induction of CHOP in comparison to control condition, SH10TC: −

## CN(C)c1cccc2c(S(=O)(=O)Nc3cc(-c4csc(NC(=O)CN5CCN(CCO)CC5)n4)ccc3F)cccc12 [PB601, N-(4-(3-((5-(dimethylamino)naphthalene)-1-sulfonamido)-4-fluorophenyl)thiazol-2-yl)-2-(4-(2-hydroxyethyl)piperazin-1-yl)acetamide]
A375 melanoma cells [6]
  viability at 1 µM: 47.2 ± 6.7%
  viability at 5 µM: 22.5 ± 5.3%
  viability at 10 µM: 10.2 ± 2.7%
Aqueous solubility
  solubility: 5.2 ± 1.9 µM (≈ 3.19 µg/mL)

## CN(C)c1cccc2c(S(=O)(=O)Nc3cccc(-c4csc(NC(=O)CNCCO)n4)c3)cccc12 [PB643, N-(4-(3-((5-(dimethylamino)naphthalene)-1-sulfonamido)phenyl)thiazol-2-yl)-2-((2-hydroxyethyl)amino)acetamide]
A375 melanoma cells [6]
  viability at 1 µM: 108 ± 11.8%
  viability at 5 µM: 29.8 ± 6.5%
  viability at 10 µM: 0%
Aqueous solubility
  solubility: 3 ± 1 µM (≈ 1.58 µg/mL)

## CCCCCc1ccc(S(=O)(=O)Nc2cccc(-c3csc(NC(=O)CN4CCN(CCO)CC4)n3)c2)cc1 [PB689, 2-(4-(2-hydroxyethyl)piperazin-1-yl)-N-(4-(3-((4-pentylphenyl)sulfonamido)phenyl)thiazol-2-yl)acetamide]
A375 melanoma cells [1]
  IC50: 1.3 µM
CHOP in KATO III cells
  Induction of CHOP in comparison to control condition, Kato III: ++
CHOP in Kyse 70 cells
  Induction of CHOP in comparison to control condition, Kyse70: +
[2]
  half-life: 110 min
[4]
  Induction of CHOP in comparison to control condition, A375: +
CHOP in SH10TC cells
  Induction of CHOP in comparison to control condition, SH10TC: +++
